#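 Results reflect a 48-hour exposure of cells in 96-well plates to compound at five concentrations. The concentration for 50% growth inhibition is given as GI50.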 Calls of active or inactive are those of the source. Cut-off read from the data, not from the text of the source: active = GI50 up to about 1.1 µM and inactive = higher.
# What was measured:
# Assay in all cases: DTP human tumour cell line panel, 48 h
# SF-295 = test system: SF-295
# SR = test system: SR
# RPMI-8226 = test system: RPMI-8226
# SK-MEL-5 = test system: SK-MEL-5
# SK-MEL-28 = test system: SK-MEL-28
# UACC-62 = test system: UACC-62
# SNB-19 = test system: SNB-19
# SK-OV-3 = test system: SK-OV-3
# U-251 = test system: U-251
# HCC 2998 = test system: HCC 2998
# A549 = test system: A549
# NCI/ADR-RES = test system: NCI/ADR-RES
# COLO 205 = test system: COLO 205
# OVCAR-8 = test system: OVCAR-8
# 786-0 = test system: 786-0
# IGROV-1 = test system: IGROV-1
# MOLT-4 = test system: MOLT-4
# MCF7 = test system: MCF7
# M14 = test system: M14
# CCRF-CEM = test system: CCRF-CEM
SMILES,GI50 (SF-295),GI50 (SR),GI50 (RPMI-8226),GI50 (SK-MEL-5),GI50 (SK-MEL-28),GI50 (UACC-62),GI50 (SNB-19),GI50 (SK-OV-3),GI50 (U-251),GI50 (HCC 2998),GI50 (A549),GI50 (NCI/ADR-RES),GI50 (COLO 205),GI50 (OVCAR-8),GI50 (786-0),GI50 (IGROV-1),GI50 (MOLT-4),GI50 (MCF7),GI50 (M14),GI50 (CCRF-CEM)
NS(=O)(=O)c1cc(S(N)(=O)=O)c(NC(=O)Nc2ccc(Cl)c(Cl)c2)c(Cl)c1Cl,> 100 µM (inactive),> 100 µM (inactive),> 100 µM (inactive),> 100 µM (inactive),> 100 µM (inactive),> 100 µM (inactive),> 100 µM (inactive),> 100 µM (inactive),> 100 µM (inactive),> 100 µM (inactive),> 100 µM (inactive),> 100 µM (inactive),40.6 µM (inactive),> 100 µM (inactive),> 100 µM (inactive),> 100 µM (inactive),> 100 µM (inactive),> 100 µM (inactive),> 100 µM (inactive),–
CSC1=NC(C(N)=O)C(N)N1C (stereo unspecified),> 100 µM (inactive),> 100 µM (inactive),> 100 µM (inactive),> 100 µM (inactive),> 100 µM (inactive),> 100 µM (inactive),> 100 µM (inactive),> 100 µM (inactive),> 100 µM (inactive),–,> 100 µM (inactive),> 100 µM (inactive),> 100 µM (inactive),> 100 µM (inactive),> 100 µM (inactive),> 100 µM (inactive),> 100 µM (inactive),–,> 100 µM (inactive),> 100 µM (inactive)
Cc1cc(C)c2c(=N)c3ccccc3n(CCCCCCO)c2n1,3.36 µM (inactive),–,1.38 µM (inactive),2.55 µM (inactive),5.71 µM (inactive),2.64 µM (inactive),5.6 µM (inactive),5.2 µM (inactive),3.51 µM (inactive),2.81 µM (inactive),3.3 µM (inactive),2.31 µM (inactive),1.35 µM (inactive),1.17 µM (inactive),2.47 µM (inactive),2.09 µM (inactive),3.78 µM (inactive),2.11 µM (inactive),4.22 µM (inactive),1.22 µM (inactive)
Cc1cc(S(=O)(=O)Nc2n[nH]c(-c3ccc(Cl)cn3)n2)c(S)cc1Cl,–,47.8 µM (inactive),> 100 µM (inactive),44.4 µM (inactive),> 100 µM (inactive),48.6 µM (inactive),30.1 µM (inactive),88.3 µM (inactive),39 µM (inactive),57.5 µM (inactive),62.7 µM (inactive),85.5 µM (inactive),> 100 µM (inactive),48.8 µM (inactive),47.6 µM (inactive),44.4 µM (inactive),40.6 µM (inactive),74.1 µM (inactive),76.6 µM (inactive),–
CCOP(=O)(C=C=C1CCC2[C@@H]3CCc4cc(OC)ccc4C3CC[C@]12C)OCC (stereo partly specified),5.6 µM (inactive),1 µM (active),–,2.98 µM (inactive),10.6 µM (inactive),3.89 µM (inactive),13.6 µM (inactive),16.7 µM (inactive),11 µM (inactive),12.1 µM (inactive),4.07 µM (inactive),6.47 µM (inactive),10.5 µM (inactive),11 µM (inactive),12.3 µM (inactive),11.4 µM (inactive),–,6.14 µM (inactive),11.6 µM (inactive),–
C/C(=N\Nc1nc2ccccc2n1C)c1ccc2ccccc2n1,2.21 µM (inactive),0.51 µM (active),–,1.24 µM (inactive),5.09 µM (inactive),2.32 µM (inactive),4.66 µM (inactive),12 µM (inactive),2 µM (inactive),0.256 µM (active),2.71 µM (inactive),1.63 µM (inactive),0.228 µM (active),–,1.99 µM (inactive),0.016 µM (active),0.414 µM (active),0.406 µM (active),1.02 µM (active),0.244 µM (active)
Nc1ccc2nc(-c3cccc(Cl)c3)cc(O)c2c1,–,–,–,3.58 µM (inactive),7.91 µM (inactive),3.14 µM (inactive),5.83 µM (inactive),4.82 µM (inactive),3.2 µM (inactive),6.73 µM (inactive),6.15 µM (inactive),3.56 µM (inactive),4.81 µM (inactive),18 µM (inactive),4.24 µM (inactive),29.3 µM (inactive),3.55 µM (inactive),3.46 µM (inactive),5.56 µM (inactive),2.14 µM (inactive)
COCN1C(=O)[C@@H]2CCCN2C(=O)c2cc([N+](=O)[O-])ccc21,35.5 µM (inactive),–,–,70.1 µM (inactive),> 100 µM (inactive),85.7 µM (inactive),96.6 µM (inactive),44.7 µM (inactive),42 µM (inactive),–,88.3 µM (inactive),> 100 µM (inactive),81.3 µM (inactive),> 100 µM (inactive),> 100 µM (inactive),35.5 µM (inactive),–,46.3 µM (inactive),> 100 µM (inactive),–
